Measured values as given in ChEMBL document CHEMBL5356988, “Diversely functionalized isoquinolines and their core-embedded heterocyclic frameworks: a privileged scaffold for medicinal chemistry” (RSC Med Chem, 2023).

Experiments:
[1] = tested on: HGC-27; assay: Antiproliferative activity against human HGC-27 cells assessed as reduction in cell viability by CCK-8 assay; assay type: functional, cell-based
[2] = target: T1, Interleukin-5 (Homo sapiens, UniProt P05113); assay: Inhibition of IL-5 (unknown origin)
T1 sequence (P05113 whole entry): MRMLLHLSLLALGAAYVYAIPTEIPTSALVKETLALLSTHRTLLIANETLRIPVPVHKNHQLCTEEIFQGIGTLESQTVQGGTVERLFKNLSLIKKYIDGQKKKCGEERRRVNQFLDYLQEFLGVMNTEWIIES

| IC50 [2] [nM] | SMILES | IC50 [1] [nM] |
| --- | --- | --- |
| – | Fc1ccc(/C=C/c2nccc3ccccc23)c(F)c1 | 40 |
| – | Fc1ccc(/C=C/c2nccc3ccccc23)cc1F | 80 |
| 2000 | C=C1Oc2c(ccc3cc(C)ncc23)C1=O | – |
